Reference: patent US11691992B2 (Anacor Pharmaceuticals, Inc., priority 2017, dated 2023)

Tested on: luciferase-expressing L. major parasites developing intracellularly inside RAW 264.7 macrophages
Experiment: Leishmania major intracellular amastigote assay in RAW 264.7 macrophages (luciferase)
Format: cell-based
Details: RAW264.7, 96 hours, read-out: IC50: I Org. intracellular amastigote Growth L. major, 4 d
Excerpt: Example 107. Assay for Leishmania major Intracellular Amastigote Assay in RAW 264.7 Macrophages
The intracellular amastigote assay is a microtiter plate drug sensitivity assay that uses the activity of luciferase as a measure of proliferation of luciferase-expressing L. major parasites developing intracellularly inside RAW 264.7 macrophages in the presence of antileishmanial drugs or experimental compounds. (Buckner, F. S., and A. J. Wilson. Am J Prop Med Hyg, 2005, 72(5): 600-605.) As the activity of luciferase and its associated luminescence after addition of the substrate, luciferin, is relative to parasite growth, a test compound that inhibits the growth of the parasite will result in a lower luminescence. The luciferase-expressing L. major parasite used in this assay is genetically modified by adding the luciferase coding region to the pLEXSY-hyg2 vector (Jena Biosciences). The luciferase expression construct was created by digesting the luciferase coding region (1.66 kbp) of pGL3-Basic (Promega) by using two restriction enzymes, NcoI/EagI, followed by electrophoretic separation of the luciferase coding region on a 1% agarose gel. The luciferase coding region was then ligated into pLEXSY-hyg2 vector (Jena Biosciences) which had previously been digested with NcoI/NotI. The vector was linearized with SwaI and subsequently gel purified prior to transfection into L. major parasites. Transfections were carried out by electroporation at 480V, 13Ω, and 500 μF (0.4 mL of 1×10^8 parasites/mL, and 0.1 mL of 10 μg DNA). Selection for transfectants was then carried out using hygromycin B (100 μg/mL). RAW 264.7 macrophages were cultured in DMEM media (ATCC Cat #30-2002) supplemented with heat-inactivated 10% FBS (Invitrogen Cat #10438-034). To begin the assay, macrophages were harvested from culture by removing all spent media, adding in 10 mL fresh media, scraping cells, and counted using Trypan Blue. The cells were resuspended in DMEM/10% HIFBS media at 2.0×10^5 cells/mL, and then dispensed in a volume of 50 μL to yield a final concentration of 10,000 macrophages/well in 384 well tissue-culture treated sterile white plates (Nunc Cat #12-565-343) using a Tecan EVO Freedom robotics system. The plates were then incubated at 37° C. overnight in 5% CO2 atmosphere for 24 hours. After overnight incubation, the media was removed from each well using the Tecan EVO Freedom robot, and L. major promastigotes were added to each well and allowed to invade the RAW macrophages. Promastigotes were cultured in Schneider's medium (Invitrogen Cat #11720-067) supplemented with 20% heat inactivated FBS. Metacyclic stage promastigotes provide the best invasion for this assay, and cultures should be grown to increase the percentage of metacyclic promastigotes for best results. Promastigotes were harvested from culture, counted, suspended at 2×10^6 promastigotes/mL in DMEM/HIFBS media, and 100,000 promastigotes were dispensed per well in a volume of 50 μL. After overnight incubation, the media was removed from each well using the Tecan Freedom EVO robot, and each well was subsequently washed three times with 40 μF of fresh DMEM/HIFBS medium to remove all extracellular promastigotes. After the third wash, 69.2 μF of DMEM/HIFBS medium was added to each well using the Tecan EVO Freedom robot. Drug plates were prepared with the Tecan EVO Freedom using sterile 96 well plates containing twelve duplicate two-fold serial dilutions of each test compound suspended in DMSO. 7.8 μF of diluted test compound was added to the 69.2 μF of media present in each well providing a 10 fold final dilution of compound. The final concentration range tested was 0.5 to 10,000 ng/ml for all assays. The plates were next incubated at 37° C. and 5% CO2 for 96 hours. After 96 hours of incubation, 7.5 μF of a luciferin solution (Caliper Fife Science) diluted to 150 μg/mF was added to each well, and the plates were incubated for 30 minutes at 37° C., in the dark. […]

`CCn1nnc(C(=O)Nc2ccc3c(c2)B(O)OC3)c1C(F)(F)F` [Example 28, 1-ethyl-N-(1-hydroxy-1,3-dihydrobenzo[c][1,2]oxaborol-6-yl)-5-(trifluoromethyl)-1H-1,2,3-triazole-4-carboxamide] and `CCCn1nnc(C(=O)Nc2ccc3c(c2)B(O)OC3)c1C(F)(F)F` [Example 31, N-(1-hydroxy-1,3-dihydrobenzo[c][1,2]oxaborol-6-yl)-1-propyl-5-(trifluoromethyl)-1H-1,2,3-triazole-4-carboxamide] cannot be ordered by IC50: at most 1000 nM for the first, at most 1000 nM for the second.

First: O=C(Nc1ccc2c(c1)B(O)OC2)c1nnn(C2CC2)c1C(F)(F)F [Example 29, 1-cyclopropyl-N-(1-hydroxy-1,3-dihydrobenzo[c][1,2]oxaborol-6-yl)-5-(trifluoromethyl)-1H-1,2,3-triazole-4-carboxamide]
Second: O=C(Nc1ccc2c(c1)B(O)OC2)c1nnn(C2CCC2)c1C(F)(F)F [Example 45, 1-cyclobutyl-N-(1-hydroxy-1,3-dihydrobenzo[c][1,2]oxaborol-6-yl)-5-(trifluoromethyl)-1H-1,2,3-triazole-4-carboxamide]
The IC50 of the first is lower: at most 1000 nM for the first, 10000 to 50000 nM for the second.

`O=C(Nc1ccc2c(c1)B(O)OC2)c1nnn(C2CCCC2)c1C(F)(F)F` [Example 30, 1-cyclopentyl-N-(1-hydroxy-1,3-dihydrobenzo[c][1,2]oxaborol-6-yl)-5-(trifluoromethyl)-1H-1,2,3-triazole-4-carboxamide] and `O=C(Nc1ccc2c(c1)B(O)OC2)c1nnn(CC2CCCC2)c1C(F)(F)F` [Example 35, 1-(cyclopentylmethyl)-N-(1-hydroxy-1,3-dihydrobenzo[c][1,2]oxaborol-6-yl)-5-(trifluoromethyl)-1H-1,2,3-triazole-4-carboxamide] cannot be ordered by IC50: at most 1000 nM for the first, at most 1000 nM for the second.

`CC(C)n1nnc(C(=O)Nc2ccc3c(c2)B(O)OC3)c1C(F)(F)F` [Example 32, N-(1-hydroxy-1,3-dihydrobenzo[c][1,2]oxaborol-6-yl)-1-isopropyl-5-(trifluoromethyl)-1H-1,2,3-triazole-4-carboxamide] and `Cc1c(C(=O)Nc2ccc3c(c2)B(O)OC3)nnn1C(C)C` [Example 37, N-(1-hydroxy-1,3-dihydrobenzo[c][1,2]oxaborol-6-yl)-1-isopropyl-5-methyl-1H-1,2,3-triazole-4-carboxamide] cannot be ordered by IC50: at most 1000 nM for the first, at most 1000 nM for the second.

`COCCn1nnc(C(=O)Nc2ccc3c(c2)B(O)OC3)c1C(F)(F)F` [Example 33, N-(1-hydroxy-1,3-dihydrobenzo[c][1,2]oxaborol-6-yl)-1-(2-methoxyethyl)-5-(trifluoromethyl)-1H-1,2,3-triazole-4-carboxamide] and `COCCn1nnc(C(=O)Nc2ccc3c(c2)B(O)OC3)c1C` [Example 40, N-(1-hydroxy-1,3-dihydrobenzo[c][1,2]oxaborol-6-yl)-1-(2-methoxyethyl)-5-methyl-1H-1,2,3-triazole-4-carboxamide] cannot be ordered by IC50: at most 1000 nM for the first, at most 1000 nM for the second.

Compared with `O=C(Nc1ccc2c(c1)B(O)OC2)c1nnn(CC2CC2)c1C(F)(F)F` [Example 34, 1-(cyclopropylmethyl)-N-(1-hydroxy-1,3-dihydrobenzo[c][1,2]oxaborol-6-yl)-5-(trifluoromethyl)-1H-1,2,3-triazole-4-carboxamide], `Cc1c(C(=O)Nc2ccc3c(c2)B(O)OC3)nnn1CC1CC1` [Example 43, 1-(cyclopropylmethyl)-N-(1-hydroxy-1,3-dihydrobenzo[c][1,2]oxaborol-6-yl)-5-methyl-1H-1,2,3-triazole-4-carboxamide] is higher in IC50: at most 1000 nM for the first, 10000 to 50000 nM for the second.

`CCCn1nnc(C(=O)Nc2ccc3c(c2)B(O)OC3)c1C` [Example 36, N-(1-hydroxy-1,3-dihydrobenzo[c][1,2]oxaborol-6-yl)-5-methyl-1-propyl-1H-1,2,3-triazole-4-carboxamide] and `Cc1c(C(=O)Nc2ccc3c(c2)B(O)OC3)nnn1CC(F)(F)F` [Example 39, N-(1-hydroxy-1,3-dihydrobenzo[c][1,2]oxaborol-6-yl)-5-methyl-1-(2,2,2-trifluoroethyl)-1H-1,2,3-triazole-4-carboxamide] cannot be ordered by IC50: at most 1000 nM for the first, at most 1000 nM for the second.

`Cc1c(C(=O)Nc2ccc3c(c2)B(O)OC3)nnn1C1CC1` [Example 38, 1-cyclopropyl-N-(1-hydroxy-1,3-dihydrobenzo[c][1,2]oxaborol-6-yl)-5-methyl-1H-1,2,3-triazole-4-carboxamide] and `Cc1c(C(=O)Nc2ccc3c(c2)B(O)OC3)nnn1C1CCCC1` [Example 41, 1-cyclopentyl-N-(1-hydroxy-1,3-dihydrobenzo[c][1,2]oxaborol-6-yl)-5-methyl-1H-1,2,3-triazole-4-carboxamide] cannot be ordered by IC50: at most 1000 nM for the first, at most 1000 nM for the second.

In the case of `Cc1c(C(=O)Nc2ccc3c(c2)B(O)OC3)nnn1CC1CCCC1` [Example 44, 1-(cyclopentylmethyl)-N-(1-hydroxy-1,3-dihydrobenzo[c][1,2]oxaborol-6-yl)-5-methyl-1H-1,2,3-triazole-4-carboxamide], the IC50 is reported as 10000 to 50000 nM.

Tested on: IL3000 T. congolense (drug sensitive) strain
Experiment: In vitro Alamar Blue 72 h drug sensitivity assay for T. congolense
Format: cell-based
Details: Trypanosoma congolense; bloodstream form, 69 h + 3 h resazurin, 34° C.; classes A-C; read-out: IC50: I Org. Growth T. congolense IL-3000, 3 d
Description: Example 106. In Vitro Alamar Blue 72 h Drug Sensitivity Assay for T. congolense
Compounds were tested in vitro for chemotherapeutic potency against the IL3000 T. congolense (drug sensitive) strain, using the Alamar Blue assay with several modifications. Test compounds were prepared as 10 mg/mL DMSO stocks for each assay run. Compounds were assayed in at least three separate, independent test runs and an 11-point dilution curve was used to determine the IC50 values. Bloodstream form trypanosomes were supported in HMI media containing 20% bovine serum and were incubated with test compounds for 69 h at 34° C. in a humidified atmosphere containing 5% CO2. Thereafter, 10 μL of Resazurin dye (12.5 mg in 100 mL of phosphate buffered saline, Sigma-Aldrich, Buchs, Switzerland) were added for an additional 3 h. Plates were then read using a fluorescent plate reader (Spectramax, Gemini XS, Bucher Biotec, Basel, Switzerland) using an excitation wavelength of 536 nm and an emission wavelength of 588 nm. Data points were averaged to generate sigmoidal dose-response curves and IC50 values were determined using Softmax Pro 5.2 software.

First: CCc1c(C(=O)Nc2ccc3c(c2)B(O)OC3)nnn1-c1ccccn1 [Example 49, 5-ethyl-N-(1-hydroxy-1,3-dihydrobenzo[c][1,2]oxaborol-6-yl)-1-(pyridin-2-yl)-1H-1,2,3-triazole-4-carboxamide]
Second: CCCc1c(C(=O)Nc2ccc3c(c2)B(O)OC3)nnn1-c1ccccn1 [Example 50, N-(1-hydroxy-1,3-dihydrobenzo[c][1,2]oxaborol-6-yl)-5-propyl-1-(pyridin-2-yl)-1H-1,2,3-triazole-4-carboxamide]
The IC50 of the first is lower: under 100 nM for the first, 100 to 300 nM for the second. The first is the more potent here.

Tested on: TdTomato-modified T. cruzi (CL strain) in Vero cells
Experiment: In vitro IC50 measurement of T. cruzi amastigote killing using TdTomato-modified T. cruzi (CL strain)
Format: cell-based
Details: Trypanosoma cruzi, 72 h, fluorescence, read-out: IC50: I Org. amastigote Growth T. cruzi CL TdTomato, 3 d
Description: Example 112. In Vitro IC50 Measurement of T. cruzi Amastigote Killing Using TdTomato-Modified T. cruzi (CL Strain)
The T. cruzi parasites used in this assay were genetically modified to express Td Tomato fluorescent protein. Vero cells (African green monkey kidney epithelial cells) were harvested from continuous cultures using trypsin and added to the inner 60 wells of 96-well Greiner Bio One plates (plate catalog #655090) at 200 ul/well of […]. Cells were allowed to adhere for 1 h before infection with T. cruzi. T. cruzi for infection were harvested from previously-infected Vero cells, washed, pelleted and resuspended at 5×10^6/mL. 50 uL of parasites were added to each well containing Vero cells. Compounds were prepared from 5 mM stock concentrations in DMSO to final concentrations in wells ranging from 5 uM to 5 nM. Wells were provided for negative controls, lacking compounds. Plates were placed into a 37° C. incubator for 20 min, then a “Day 0” reading was taken on a Synergy H4 plate reader to record initial fluorescence levels, at 544 (excitation) and 612 nm (emission). 96-well plates were placed in Tupperware containers with wet paper towels and incubated at 37° C. incubator for 72 h. After 72 h plates were reread (Day 3 reading) and data analyzed using Excel and/or Graphpad software. Day 0 fluorescence was subtracted from Day 3 to remove input parasite fluorescence. Growth curves are generated and 50% and 90% inhibitory concentrations are determined by nonlinear regression analysis.

`CCc1c(C(=O)Nc2ccc3c(c2)B(O)OC3)nnn1-c1ccccn1` [Example 49, 5-ethyl-N-(1-hydroxy-1,3-dihydrobenzo[c][1,2]oxaborol-6-yl)-1-(pyridin-2-yl)-1H-1,2,3-triazole-4-carboxamide] and `CCCc1c(C(=O)Nc2ccc3c(c2)B(O)OC3)nnn1-c1ccccn1` [Example 50, N-(1-hydroxy-1,3-dihydrobenzo[c][1,2]oxaborol-6-yl)-5-propyl-1-(pyridin-2-yl)-1H-1,2,3-triazole-4-carboxamide] cannot be ordered by IC50: under 600 nM for the first, under 600 nM for the second.
